How the values were obtained:
Aphis craccivora = test: Insecticidal activity against Aphis craccivora by immersing (mortality after 24 hours); format: in vivo; conditions: for mortality at 500 ppm: Aphis craccivora, 24 h, read-out: Mortality (%) (500 ppm) Aphis craccivora; for Mortality (%) (500 ppm) Aphis craccivora: in vivo
Procedure: Aphis, which belongs to Homoptera and has a piercing-sucking mouthpart, is a common insect for agricultural plant. Aphis craccivora was tested by the way of immersing.
Test method: exactly weighed various samples were independently added to N,N-dimethylformamide to form a 10 g/L stock solution. The mixture was diluted with 0.2 mL/L aqueous Triton X-100 solution to a concentration of 500 ug/mL. After stably sucking on bean sprout, the adult aphis without wings together with bean sprout was dipped into the dilution of 500 ug/mL, 100 ug/mL, 50 ug/mL, 25 ug/mL, 12.5 ug/mL, 6.25 ug/mL (LD50 was calculated), taken out after 5 seconds, and the excess dilution was sucked out with bibulous paper and the adult aphis without wings was incubated in clean vessel at a constant temperature of 23° C. Each concentration was repeated for 3 times and the control group contained 0.2 mL/L aqueous Triton X-100 solution. The number of killed aphis was counted after 24 hours to calculate the mortality.

Nilaparvata lugens = test: Insecticidal activity against Nilaparvata lugens by spraying (mortality after 24 hours); format: in vivo; conditions: for mortality at 500 ppm: Nilaparvata lugens, 24 h, read-out: Mortality (%) (500 ppm) Nilaparvata lugens; for Mortality (%) (500 ppm) Nilaparvata lugens: spraying 2 ml, counted after 24 hours
Procedure: Plant hopper, which belongs to Homoptera and has a piercing-sucking mouthpart, is a common insect for agricultural plant. Nilaparvata lugens was tested by the way of spraying.
Test method: the compound to be tested was exactly formulated into a solution having a certain concentration and clean water was used as a blank control. Each process was repeated for 3 tumblers (3 times). 2 ml of solution was sprayed uniformly to each tumbler by a mini manual sprayer. 10 Nilaparvata lugens were introduced to every sink 6 hours before spraying. Three series of experiments were conducted. The number of killed Nilaparvata lugens was counted after 24 hours to calculate the mortality.

Compound	mortality at 500 ppm (Aphis craccivora) [%]	mortality at 500 ppm (Nilaparvata lugens) [%]	Mortality (%) (500 ppm) Aphis craccivora (Aphis craccivora)	Mortality (%) (500 ppm) Nilaparvata lugens (Nilaparvata lugens)
CC1CC(O)N2CCN(Cc3ccc(Cl)nc3)C2=C1[N+](=O)[O-] (stereo not shown) [Compound 1, 1-((6-chloropyridin-3-yl)methyl)-7-methyl-8-nitro-1,2,3,5,6,7-hexahydroimidazo[1,2-a]pyridin-5-ol]	100	100		
COC1CC(C)C([N+](=O)[O-])=C2N(Cc3ccc(Cl)nc3)CCN21 (stereo not shown) [Compound 2, 1-((6-chloropyridin-3-yl)methyl)-5-methoxy-7-methyl-8-nitro-1,2,3,5,6,7-hexahydroimidazo[1,2-a]pyridine]	98	100		
CCOC1CC(C)C([N+](=O)[O-])=C2N(Cc3ccc(Cl)nc3)CCN21 (stereo not shown) [Compound 3, 1-((6-chloropyridin-3-yl)methyl)-5-ethoxy-7-methyl-8-nitro-1,2,3,5,6,7-hexahydroimidazo[1,2-a]pyridine]	100	100		
CC1CC(OCC(F)(F)F)N2CCN(Cc3ccc(Cl)nc3)C2=C1[N+](=O)[O-] (stereo not shown) [Compound 4]			100	100
CC(C)OC1CC(C)C([N+](=O)[O-])=C2N(Cc3ccc(Cl)nc3)CCN21 (stereo not shown) [Compound 6]			100	100
CCCCOC1CC(C)C([N+](=O)[O-])=C2N(Cc3ccc(Cl)nc3)CCN21 (stereo not shown) [Compound 7, 5-butoxy-1-((6-chloropyridin-3-yl)methyl)-7-methyl-8-nitro-1,2,3,5,6,7-hexahydroimidazo[1,2-a]pyridine]	80	100		
CCCCCOC1CC(C)C([N+](=O)[O-])=C2N(Cc3ccc(Cl)nc3)CCN21 (stereo not shown) [Compound 8]			67	80
C=CCOC1CC(C)C([N+](=O)[O-])=C2N(Cc3ccc(Cl)nc3)CCN21 (stereo not shown) [Compound 9]			98	100
C#CCOC1CC(C)C([N+](=O)[O-])=C2N(Cc3ccc(Cl)nc3)CCN21 (stereo not shown) [Compound 10]			43	67
CC(=O)OC1CC(C)C([N+](=O)[O-])=C2N(Cc3ccc(Cl)nc3)CCN21 (stereo not shown) [Compound 11, 1-((6-chloropyridin-3-yl)methyl)-7-methyl-8-nitro-1,2,3,5,6,7-hexahydroimidazo[1,2-a]pyridin-5-yl acetate]	93	100		
CC1CC(O)N2CCN(Cc3cnc(Cl)s3)C2=C1[N+](=O)[O-] (stereo not shown) [Compound 12, 1-((2-chlorothiazol-5-yl)methyl)-7-methyl-8-nitro-1,2,3,5,6,7-hexahydroimidazo[1,2-a]pyridin-5-ol]	100	100		
CCOC1CC(C)C([N+](=O)[O-])=C2N(Cc3cnc(Cl)s3)CCN21 (stereo not shown) [Compound 13]			98	100
CCCOC1CC(C)C([N+](=O)[O-])=C2N(Cc3cnc(Cl)s3)CCN21 (stereo not shown) [Compound 14]			100	100
CC1CC(O)N2CCN(CC3CCOC3)C2=C1[N+](=O)[O-] (stereo not shown) [Compound 15]			24	35
COC1CC(C)C([N+](=O)[O-])=C2N(CC3CCOC3)CCN21 (stereo not shown) [Compound 16]			45	67
CCOC1CC(C)C([N+](=O)[O-])=C2N(CC3CCOC3)CCN21 (stereo not shown) [Compound 17]			89	100
CC1CC([N+](=O)[O-])=C2N(Cc3ccc(Cl)nc3)CCN2C1O (stereo not shown) [Compound 18, 1-((6-chloropyridin-3-yl)methyl)-6-methyl-8-nitro-1,2,3,5,6,7-hexahydroimidazo[1,2-a]pyridin-5-ol]	98	100		
CCOC1C(C)CC([N+](=O)[O-])=C2N(Cc3ccc(Cl)nc3)CCN21 (stereo not shown) [Compound 19]			100	100
CCCOC1C(C)CC([N+](=O)[O-])=C2N(Cc3ccc(Cl)nc3)CCN21 (stereo not shown) [Compound 20]			86	98
CC1CC([N+](=O)[O-])=C2N(Cc3cnc(Cl)s3)CCN2C1O (stereo not shown) [Compound 21]			90	100
CCC1CC(O)N2CCN(Cc3ccc(Cl)nc3)C2=C1[N+](=O)[O-] (stereo not shown) [Compound 22]			93	98
CCC1CC(OC(C)C)N2CCN(Cc3ccc(Cl)nc3)C2=C1[N+](=O)[O-] (stereo not shown) [Compound 23]			65	95
CCCC1CC(O)N2CCN(Cc3ccc(Cl)nc3)C2=C1[N+](=O)[O-] (stereo not shown) [Compound 24]			97	89

Source: patent publication US20090111847A1, “PREPARATION METHOD AND USE OF COMPOUNDS HAVING HIGH INSECTICIDAL ACTIVITIES” (priority 2006, published 2009)
